Measured values from ChEMBL document CHEMBL5113508, “Targeting Human CD22/Siglec-2 with Dimeric Sialosides as Novel Oligosaccharide Mimetics” (J Med Chem, 2022).

Legend:
[1] = target: B-cell receptor CD22 (Homo sapiens) (UniProt P20273); experiment: Inhibition of to hFc tagged CD22 (unknown origin) assessed as relative inhibitory potency incubated for 4 hrs by ELISA relative to 1,4-bis-(2-Aza-1-oxo-8-(sodium(5-acetamido-3,5,9-trideoxy-9-(4-phenylbenzamido)-D-glycero-alpha-D-galacto-non-2-ulopyranosyloxyonate))-5-thia-octyl)benzene
[2] = target: B-cell receptor CD22 (Homo sapiens) (UniProt P20273); experiment: (§1) Inhibition of CD22 in human Daudi cells assessed as relative inhibitory potency in presence of biotinylated dimeric 2-(78-biotinoylamino-1,4,7,10,13,16-hexaoxa-octadecyl)-1,4-bis(2-aza-l-oxo-8-(sodium(5-acetamido-3,5,9-trideoxy-9-(4-phenylbenzamido)-D-glycero-a-D-galacto-non-2-ulopyranosyloxyonate))-5-thia-octyl) benzene preincubated for 15 mins followed by probe addition incubated for 20 mins by flow cytometric analysis relative to 1,4-bis-(2-Aza-1-oxo-8-(sodium(5-acetamido-3,5,9-trideoxy-9-(4-phenylbenzamido)-D-glycero-alpha-D-galacto-non-2-ulopyranosyloxyonate))-5-thia-octyl)benzene; assay type: cell-based; conditions: time 35.0 min
[3] = target: T1, B-cell receptor CD22 (Homo sapiens, UniProt P20273); experiment: Inhibition hFc tagged CD22 incubated for 4 hrs by ELISA
T1 sequence (P20273 whole entry): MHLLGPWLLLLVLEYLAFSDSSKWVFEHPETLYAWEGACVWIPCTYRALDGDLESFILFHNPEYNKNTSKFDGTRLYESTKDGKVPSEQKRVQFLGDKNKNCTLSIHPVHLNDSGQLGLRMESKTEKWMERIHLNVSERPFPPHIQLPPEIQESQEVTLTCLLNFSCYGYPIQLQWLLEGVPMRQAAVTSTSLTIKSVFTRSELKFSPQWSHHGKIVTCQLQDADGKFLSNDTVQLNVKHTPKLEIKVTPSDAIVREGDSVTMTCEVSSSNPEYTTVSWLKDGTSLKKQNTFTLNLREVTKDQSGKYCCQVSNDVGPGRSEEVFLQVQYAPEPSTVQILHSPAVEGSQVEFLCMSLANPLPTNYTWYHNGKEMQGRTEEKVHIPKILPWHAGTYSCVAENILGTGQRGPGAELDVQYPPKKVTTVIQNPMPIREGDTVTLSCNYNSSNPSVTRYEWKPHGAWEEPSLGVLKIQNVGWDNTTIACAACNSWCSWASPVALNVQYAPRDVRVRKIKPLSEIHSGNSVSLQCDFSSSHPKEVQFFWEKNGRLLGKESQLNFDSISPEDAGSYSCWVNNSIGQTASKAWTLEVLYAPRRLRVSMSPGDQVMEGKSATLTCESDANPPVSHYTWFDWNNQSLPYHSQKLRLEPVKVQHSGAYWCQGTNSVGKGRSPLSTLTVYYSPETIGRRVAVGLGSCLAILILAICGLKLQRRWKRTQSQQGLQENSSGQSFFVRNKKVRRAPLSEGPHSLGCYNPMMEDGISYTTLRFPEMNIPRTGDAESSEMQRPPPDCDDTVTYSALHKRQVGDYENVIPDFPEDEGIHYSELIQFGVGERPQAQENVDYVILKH

[4] = target: B-cell receptor CD22 (Homo sapiens) (UniProt P20273); experiment: as §1, with “CD22 (unknown origin)” for “CD22”, “1,4-Bis-(2-aza-1-oxo-8-(sodium-(5-acetamido-3,5-dideoxy-D-glycero-alpha-D-galacto-non-2-ulopyranosyloxyonate))-5-thia-octyl)benzene” for “1,4-bis-(2-Aza-1-oxo-8-(sodium(5-acetamido-3,5,9-trideoxy-9-(4-phenylbenzamido)-D-glycero-alpha-D-galacto-non-2-ulopyranosyloxyonate))-5-thia-octyl)benzene”; assay type: cell-based; conditions: time 35.0 min
[5] = target: B-cell receptor CD22 (Homo sapiens) (UniProt P20273); experiment: Inhibition of hFc tagged CD22 (unknown origin) assessed as relative inhibitory potency incubated for 4 hrs by ELISA relative to 1,4-Bis-(2-aza-1-oxo-8-(sodium-(5-acetamido-3,5-dideoxy-D-glycero-alpha-D-galacto-non-2-ulopyranosyloxyonate))-5-thia-octyl)benzene
[6] = target: B-cell receptor CD22 (Homo sapiens) (UniProt P20273); experiment: Antagonist activity at CD22 in IgM stimulated human Daudi cells assessed as increase in calcium flux incubated for 10 mins by flow cytometric analysis; assay type: cell-based; conditions: dose 2-200 µM, DDE = dose-dependent effect
[7] = target: T1, B-cell receptor CD22; experiment: Inhibition of CD22 in human Daudi cells preincubated for 15 mins followed by biotinylated dimeric 2-(78-biotinoylamino-1,4,7,10,13,16-hexaoxa-octadecyl)-1,4-bis(2-aza-l-oxo-8-(sodium(5-acetamido-3,5,9-trideoxy-9-(4-phenylbenzamido)-D-glycero-a-D-galacto-non-2-ulopyranosyloxyonate))-5-thia-octyl) benzene probe addition incubated for 20 mins by flow cytometric analysis; assay type: cell-based

SMILES	fold change (FC) [1]	fold change (FC) [2]	further results
CC(=O)N[C@H]1[C@H]([C@H](O)[C@H](O)CNC(=O)c2ccc(-c3ccccc3)cc2)O[C@@](OCCCSCCNC(=O)c2ccc(C(=O)NCCSCCCO[C@]3(C(=O)O)C[C@H](O)[C@@H](NC(C)=O)[C@H]([C@H](O)[C@H](O)CNC(=O)c4ccc(-c5ccccc5)cc4)O3)c(Br)c2)(C(=O)O)C[C@@H]1O	0.77	5.9	
CC(=O)N[C@H]1[C@H]([C@H](O)[C@H](O)CNC(=O)c2ccc(-c3ccccc3)cc2)O[C@@](OCCCSCCNC(=O)c2ccc(C(=O)NCCSCCCO[C@]3(C(=O)O)C[C@H](NS(=O)(=O)O)[C@@H](NC(C)=O)[C@H]([C@H](O)[C@H](O)CNC(=O)c4ccc(-c5ccccc5)cc4)O3)cc2)(C(=O)O)C[C@@H]1NS(=O)(=O)O	65	138	
CC(=O)N[C@H]1[C@H]([C@H](O)[C@H](O)CNC(=O)c2ccc(C3CCCCC3)cc2)O[C@@](OCCCSCCNC(=O)c2ccc(C(=O)NCCSCCCO[C@]3(C(=O)O)C[C@H](O)[C@@H](NC(C)=O)[C@H]([C@H](O)[C@H](O)CNC(=O)c4ccc(C5CCCCC5)cc4)O3)cc2)(C(=O)O)C[C@@H]1O	0.1	0.008	
CC(=O)N[C@H]1[C@H]([C@H](O)[C@H](O)CNC(=O)c2ccc(-c3ccccc3)cc2)O[C@@](OCCCSCCNC(=O)c2cccc(C(=O)NCCSCCCO[C@]3(C(=O)O)C[C@H](O)[C@@H](NC(C)=O)[C@H]([C@H](O)[C@H](O)CNC(=O)c4ccc(-c5ccccc5)cc4)O3)c2)(C(=O)O)C[C@@H]1O	0.79	0.11	
CC(=O)N[C@H]1[C@H]([C@H](O)[C@H](O)CNC(=O)c2ccc(-c3ccccc3)cc2)O[C@@](OCCCSCCNC(=O)c2ccc(C(=O)NCCSCCCO[C@]3(C(=O)O)C[C@H](O)[C@@H](NC(C)=O)[C@H]([C@H](O)[C@H](O)CNC(=O)c4ccc(-c5cccs5)cc4)O3)cc2)(C(=O)O)C[C@@H]1O	1.2	3.7	
CC(=O)N[C@H]1[C@H]([C@H](O)[C@H](O)CO)O[C@@](OCCCSCCNC(=O)c2ccc(C(=O)NCCSCCCO[C@]3(C(=O)O)C[C@H](O)[C@@H](NC(C)=O)[C@H]([C@H](O)[C@H](O)CNC(=O)c4ccc(-c5ccccc5)cc4)O3)cc2)(C(=O)O)C[C@@H]1O			IC50 [3]: 0.39 nM; fold change (FC) [4]: 135; fold change (FC) [5]: 105; Activity [6]: Dde
CC(=O)N[C@H]1[C@H]([C@H](O)[C@H](O)CNC(=O)c2ccc(-c3ccccc3)cc2)O[C@@](OCCCSCCNC(=O)c2ccccc2)(C(=O)O)C[C@@H]1O			IC50 [3]: 0.32 nM; fold change (FC) [5]: 128
CC(=O)N[C@H]1[C@H]([C@H](O)[C@H](O)CNC(=O)c2ccc(-c3ccccc3)cc2)O[C@@](OCCCSCCNC(=O)c2ccc(C(=O)NCCSCCCO[C@]3(C(=O)O)C[C@H](O)[C@@H](NC(C)=O)[C@H]([C@H](O)[C@H](O)CNC(=O)c4ccc(C5CCCCC5)cc4)O3)cc2)(C(=O)O)C[C@@H]1O			fold change (FC) [4]: 185
CC(=O)N[C@H]1[C@H]([C@H](O)[C@H](O)CNC(=O)c2ccc(-c3ccccc3)cc2)O[C@](C(=O)O)(n2cc(CCCCNC(=O)c3ccc(C(=O)NCCCCc4cn([C@]5(C(=O)O)C[C@H](O)[C@@H](NC(C)=O)[C@H]([C@H](O)[C@H](O)CNC(=O)c6ccc(-c7ccccc7)cc6)O5)nn4)cc3)nn2)C[C@@H]1O	0.86	< 0.0001	
CC(=O)N[C@H]1[C@H]([C@H](O)[C@H](O)CNC(=O)c2ccc(-c3cccs3)s2)O[C@@](OCCCSCCNC(=O)c2ccc(C(=O)NCCSCCCO[C@]3(C(=O)O)C[C@H](O)[C@@H](NC(C)=O)[C@H]([C@H](O)[C@H](O)CNC(=O)c4ccc(-c5cccs5)s4)O3)cc2)(C(=O)O)C[C@@H]1O	4.5	0.07	
CC(=O)N[C@H]1[C@H]([C@H](O)[C@H](O)CNC(=O)c2ccc(-c3ccccc3)cc2)O[C@@](OCCC[S+]([O-])CCNC(=O)c2ccc(C(=O)NCC[S+]([O-])CCCO[C@]3(C(=O)O)C[C@H](O)[C@@H](NC(C)=O)[C@H]([C@H](O)[C@H](O)CNC(=O)c4ccc(-c5ccccc5)cc4)O3)cc2)(C(=O)O)C[C@@H]1O (some centres not stated)	0.49	0.013	
CC(=O)N[C@H]1[C@H]([C@H](O)[C@H](O)CNC(=O)c2ccc(-c3ccccc3Cl)cc2)O[C@@](OCCCSCCNC(=O)c2ccc(C(=O)NCCSCCCO[C@]3(C(=O)O)C[C@H](O)[C@@H](NC(C)=O)[C@H]([C@H](O)[C@H](O)CNC(=O)c4ccc(-c5ccccc5Cl)cc4)O3)cc2)(C(=O)O)C[C@@H]1O	5.3	1.3	
CC(=O)N[C@H]1[C@H]([C@H](O)[C@H](O)CNC(=O)c2ccc(-c3ccccc3)cc2)O[C@@](OCCCSCCNC(=O)c2ccc(-c3ccc(C(=O)NCCSCCCO[C@]4(C(=O)O)C[C@H](O)[C@@H](NC(C)=O)[C@H]([C@H](O)[C@H](O)CNC(=O)c5ccc(-c6ccccc6)cc5)O4)cc3)cc2)(C(=O)O)C[C@@H]1O	0.17	0.01	
CC(=O)N[C@H]1[C@H]([C@H](O)[C@H](O)CNC(=O)c2ccc(-c3ccccc3)cc2)O[C@@](OCCCSCCNCc2ccc(CNCCSCCCO[C@]3(C(=O)O)C[C@H](O)[C@@H](NC(C)=O)[C@H]([C@H](O)[C@H](O)CNC(=O)c4ccc(-c5ccccc5)cc4)O3)cc2)(C(=O)O)C[C@@H]1O	0.1	0.011	

The next lines start with results.

fold change (FC) [1]	fold change (FC) [2]	SMILES	further results
0.1	1.5	CC(=O)N[C@H]1[C@H]([C@H](O)[C@H](O)CNC(=O)c2ccc(-c3ccccc3)cc2)O[C@@](OCCCSCCC(=O)Nc2ccc(NC(=O)CCSCCCO[C@]3(C(=O)O)C[C@H](O)[C@@H](NC(C)=O)[C@H]([C@H](O)[C@H](O)CNC(=O)c4ccc(-c5ccccc5)cc4)O3)cc2)(C(=O)O)C[C@@H]1O	
	34	CC(=O)N[C@H]1[C@H]([C@H](O)[C@H](O)CNC(=O)c2ccc(-c3ccccc3)cc2)O[C@@](OCCCSCCNC(=O)c2ccc(C(=O)NCCSCCCO[C@]3(C(=O)O)C[C@H](NS(=O)(=O)O)[C@@H](NC(C)=O)[C@H]([C@H](O)[C@H](O)CNC(=O)c4ccc(-c5ccccc5)cc4)O3)c(OCCOCCOCCOCCOCCOCCN)c2)(C(=O)O)C[C@@H]1NS(=O)(=O)O	
1.6	0.71	CC(=O)N[C@H]1[C@H]([C@H](O)[C@H](O)CNC(=O)c2ccc(-c3ccsc3)cc2)O[C@@](OCCCSCCNC(=O)c2ccc(C(=O)NCCSCCCO[C@]3(C(=O)O)C[C@H](O)[C@@H](NC(C)=O)[C@H]([C@H](O)[C@H](O)CNC(=O)c4ccc(-c5ccsc5)cc4)O3)cc2)(C(=O)O)C[C@@H]1O	
0.18	0.0028	CC(=O)N[C@H]1[C@H]([C@H](O)[C@H](O)CNC(=O)c2ccc(-c3ccccc3)cc2)O[C@@](OCc2cn(CCNC(=O)c3ccc(C(=O)NCCn4cc(CO[C@]5(C(=O)O)C[C@H](O)[C@@H](NC(C)=O)[C@H]([C@H](O)[C@H](O)CNC(=O)c6ccc(-c7ccccc7)cc6)O5)nn4)cc3)nn2)(C(=O)O)C[C@@H]1O	
	0.14	CC(=O)N[C@H]1[C@H]([C@H](O)[C@H](O)CNC(=O)c2ccc(-c3ccccc3)cc2)O[C@@](OCCCSCCNC(=O)c2ccc(C(=O)NCCSCCCO[C@]3(C(=O)O)C[C@H](O)[C@@H](NC(C)=O)[C@H]([C@H](O)[C@H](O)CNC(=O)c4ccc(-c5ccccc5)cc4)O3)c(OCCOCCOCCOCCOCCOCCN)c2)(C(=O)O)C[C@@H]1O	
0.77	0.073	CC(=O)N[C@H]1[C@H]([C@H](O)[C@H](O)CNC(=O)c2ccc(-c3ccccc3)cc2)O[C@@](OCCCSCCNC(=O)CCCCC(=O)NCCSCCCO[C@]2(C(=O)O)C[C@H](O)[C@@H](NC(C)=O)[C@H]([C@H](O)[C@H](O)CNC(=O)c3ccc(-c4ccccc4)cc3)O2)(C(=O)O)C[C@@H]1O	IC50 [7]: 24000 nM
0.01	0.00034	CC(=O)N[C@H]1[C@H]([C@H](O)[C@H](O)CO)O[C@@](OCCCSCCNC(=O)c2ccc(C(=O)NCCSCCCO[C@]3(C(=O)O)C[C@H](O)[C@@H](NC(C)=O)[C@H]([C@H](O)[C@H](O)CO)O3)cc2)(C(=O)O)C[C@@H]1O	
